{
  "source": "patent US5952326A",
  "about": "“Tetralin and chroman derivatives useful in the treatment of asthma, arthritis and related diseases” (Pfizer Inc., priority 1997, dated 1999)",
  "test_system": "PAF (platelet activating factor) lethality",
  "assay": "PAF lethality assay procedure",
  "format": "in vivo, mice (CD1 males)",
  "conditions": "Mus musculus, po, positive control, mice treated orally 45 minutes before i.v. PAF injection, approximate",
  "method": "To evaluate the compounds of the formula (I) in vivo, they are tested by the so-called PAF lethality assay procedure:\nMice: CD1 males, all approximately the same weight (approximately 26 grams), 12 per group.\nVehicle for oral drug dosing: EES (5% ethanol, 5% emulphor, 90% saline). Stored at room temperature.\nDrugs: For routine screening at 50 mg/kg, 20 mg drug is dissolved in 4 ml EES, using sonication in a sonicator bath or grinding in a Ten Broeck grinder to dissolve drug if necessary. If solubility is still a problem, the drug is used as a suspension.\nVehicle for i.v. Injection: Saline with 2.5 mg/ml Bovine Serum Albumin (BSA, Sigma #A4378) and 0.05 mg/ml Propranolol (Sigma #P0884). Prepared fresh daily and kept at room temperature.\nPlatelet Activating Factor (PAF): A 10 microm stock solution is prepared by dissolving 1 mg PAF (Calbiochem #429460) in 0.18 ml ethanol. This is stored at -20° C. and is diluted in vehicle (see above) the day of use. The concentration of PAF used is calibrated so that when injected at 0.1 ml/10 grams body weight, it will kill approximately 80% of untreated controls. This is usually about […] (a 1 to 2034 dilution from stock). […]\n45 minutes before PAF injection, mice are treated orally with drug using 0.1 ml/10 grams body weight. […] Results are expressed as percent mortality as compared to controls. […]",
  "data": [
    {"smiles": "O=C1CCN(c2ccccc2)N1", "note": "[Phenidone]", "values": [
      {"measurement": "ED50", "result": "~25", "unit": "mg/kg"}
    ]}
  ]
}
